Test results from ChEMBL document CHEMBL1145629, “Design of (N)-methanocarba adenosine 5'-uronamides as species-independent A3 receptor-selective agonists” (Bioorg Med Chem Lett, 2008).

Legend:
[1] = molecular target: T1, Adenosine receptor A3 (Homo sapiens, UniProt P0DMS8); experiment: Displacement of radioligand from human adenosine A3 receptor expressed in CHO cells; format: cell-based
T1 sequence (P0DMS8 whole entry): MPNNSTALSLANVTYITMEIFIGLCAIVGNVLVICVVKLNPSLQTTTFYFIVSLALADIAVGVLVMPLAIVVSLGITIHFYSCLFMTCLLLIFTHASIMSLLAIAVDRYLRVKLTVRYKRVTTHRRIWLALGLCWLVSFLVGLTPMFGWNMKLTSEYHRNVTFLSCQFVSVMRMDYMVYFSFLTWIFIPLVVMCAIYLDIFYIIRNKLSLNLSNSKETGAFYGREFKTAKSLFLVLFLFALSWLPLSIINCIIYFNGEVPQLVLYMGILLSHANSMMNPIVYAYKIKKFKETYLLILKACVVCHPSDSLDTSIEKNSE

[2] = molecular target: T2, Adenosine receptor A2a (Homo sapiens, UniProt P29274); experiment: Displacement of radioligand from human A2A adenosine receptor expressed in HEK293 cells at 10 uM; format: cell-based
T2 sequence (P29274 whole entry): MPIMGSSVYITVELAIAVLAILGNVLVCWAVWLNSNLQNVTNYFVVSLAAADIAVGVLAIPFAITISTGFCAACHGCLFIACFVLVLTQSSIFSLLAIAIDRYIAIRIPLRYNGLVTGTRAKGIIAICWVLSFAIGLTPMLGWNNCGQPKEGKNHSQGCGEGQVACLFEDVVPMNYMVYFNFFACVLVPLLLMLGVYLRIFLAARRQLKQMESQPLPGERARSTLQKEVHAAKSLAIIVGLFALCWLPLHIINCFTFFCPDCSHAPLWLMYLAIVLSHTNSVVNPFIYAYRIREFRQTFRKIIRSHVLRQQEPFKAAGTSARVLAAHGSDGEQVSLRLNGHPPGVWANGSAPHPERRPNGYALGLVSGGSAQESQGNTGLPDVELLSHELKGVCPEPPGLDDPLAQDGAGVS

[3] = molecular target: Adenosine receptor A2a (Mus musculus) (UniProt Q60613); experiment: Displacement of [3H]2-[p-(2-carboxyethyl)phenyl-ethylamino]-5'-N-ethylcarbox-amidoadenosine from mouse recombinant adenosine A2A receptor expressed in HEK293 at 100 uM; format: cell-based
Chain of Adenosine receptor A2a (Mus musculus) (Q60613 whole entry): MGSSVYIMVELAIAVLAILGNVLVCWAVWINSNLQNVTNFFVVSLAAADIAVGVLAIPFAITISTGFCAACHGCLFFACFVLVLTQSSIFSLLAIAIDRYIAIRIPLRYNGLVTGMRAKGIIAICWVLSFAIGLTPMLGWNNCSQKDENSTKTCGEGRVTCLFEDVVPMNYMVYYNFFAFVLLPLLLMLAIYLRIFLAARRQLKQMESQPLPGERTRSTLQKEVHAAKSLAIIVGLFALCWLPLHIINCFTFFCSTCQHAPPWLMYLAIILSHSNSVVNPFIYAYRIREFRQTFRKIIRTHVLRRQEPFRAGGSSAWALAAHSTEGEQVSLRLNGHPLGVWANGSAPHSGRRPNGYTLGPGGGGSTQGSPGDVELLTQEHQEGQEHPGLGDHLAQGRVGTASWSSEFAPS

[4] = species: Mus musculus; experiment: Selectivity for mouse adenosine A3 receptor over mouse adenosine A1 receptor
[5] = molecular target: Adenosine receptors; A1 & A3 (Homo sapiens) (UniProt P30542+P0DMS8); experiment: Selectivity for human adenosine A3 receptor over human adenosine A1 receptor
[6] = molecular target: T3, Adenosine receptor A1 (Mus musculus, UniProt Q60612); experiment: Displacement of [125I]N6-(4-amino-3-iodobenzyl)adenosine-5'-N-methyl-uronamide from mouse recombinant adenosine A1 receptor expressed in HEK293 cells; format: cell-based
T3 sequence (Q60612 whole entry): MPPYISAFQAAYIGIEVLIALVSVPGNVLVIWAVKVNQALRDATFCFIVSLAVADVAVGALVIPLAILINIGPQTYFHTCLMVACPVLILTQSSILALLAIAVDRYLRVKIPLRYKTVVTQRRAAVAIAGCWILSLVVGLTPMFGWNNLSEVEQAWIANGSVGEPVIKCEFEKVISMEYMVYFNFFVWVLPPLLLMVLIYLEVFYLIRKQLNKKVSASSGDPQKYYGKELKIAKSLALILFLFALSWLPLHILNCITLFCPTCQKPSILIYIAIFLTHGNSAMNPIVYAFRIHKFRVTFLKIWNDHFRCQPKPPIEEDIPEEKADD

[7] = molecular target: T4, Adenosine receptor A3 (Mus musculus, UniProt Q61618); experiment: Displacement of [125I]N6-(-amino-3-iodobenzyl)adenosine-5'-N-methyl-uronamide from mouse recombinant adenosine A3 receptor expressed in HEK293 cells; format: cell-based
T4 sequence (Q61618 whole entry): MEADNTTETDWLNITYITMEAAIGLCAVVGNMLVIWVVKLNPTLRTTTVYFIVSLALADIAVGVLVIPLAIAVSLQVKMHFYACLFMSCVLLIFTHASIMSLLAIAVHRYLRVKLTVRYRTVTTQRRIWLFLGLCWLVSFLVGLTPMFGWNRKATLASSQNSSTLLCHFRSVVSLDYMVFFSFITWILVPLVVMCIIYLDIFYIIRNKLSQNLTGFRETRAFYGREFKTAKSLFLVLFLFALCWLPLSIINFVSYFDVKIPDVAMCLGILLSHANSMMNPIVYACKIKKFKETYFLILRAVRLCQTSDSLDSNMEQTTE

[8] = molecular target: T5, Adenosine receptor A1 (Homo sapiens, UniProt P30542); experiment: Displacement of radioligand from human adenosine A1 receptor expressed in CHO cells; format: cell-based
T5 sequence (P30542 whole entry): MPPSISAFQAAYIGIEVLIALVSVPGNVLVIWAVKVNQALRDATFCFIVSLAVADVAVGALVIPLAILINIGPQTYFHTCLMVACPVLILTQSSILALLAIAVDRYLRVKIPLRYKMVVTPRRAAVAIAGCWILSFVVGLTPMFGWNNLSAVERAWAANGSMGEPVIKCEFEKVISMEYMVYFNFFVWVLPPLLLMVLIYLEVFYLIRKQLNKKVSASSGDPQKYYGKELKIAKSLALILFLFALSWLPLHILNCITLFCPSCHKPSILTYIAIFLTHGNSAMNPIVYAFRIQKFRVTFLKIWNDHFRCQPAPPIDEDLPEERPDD

[9] = molecular target: T6, Adenosine receptor A2b (Mus musculus, UniProt Q60614); experiment: Activation of mouse adenosine A2B receptor
T6 sequence (Q60614 whole entry): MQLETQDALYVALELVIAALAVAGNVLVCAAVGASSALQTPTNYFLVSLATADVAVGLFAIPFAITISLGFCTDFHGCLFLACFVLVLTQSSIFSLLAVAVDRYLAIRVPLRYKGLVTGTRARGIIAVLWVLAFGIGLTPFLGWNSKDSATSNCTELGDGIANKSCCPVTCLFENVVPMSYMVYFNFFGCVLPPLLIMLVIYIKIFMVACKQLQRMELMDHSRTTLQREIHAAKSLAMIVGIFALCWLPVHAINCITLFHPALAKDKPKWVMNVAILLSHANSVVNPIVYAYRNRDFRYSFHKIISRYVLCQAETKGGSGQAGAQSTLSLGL

[10] = molecular target: Adenosine receptor A2a (Mus musculus, UniProt Q60613); experiment: Displacement of [3H]2-[p-(2-carboxyethyl)phenyl-ethylamino]-5'-N-ethylcarboxamidoadenosine from mouse recombinant adenosine A2A receptor expressed in HEK293 cells; format: cell-based
Chain of Adenosine receptor A2a (Mus musculus, UniProt Q60613) (Q60613 whole entry): as the sequence (Q60613 whole entry) above

[11] = molecular target: T7, Adenosine receptor A2b (Homo sapiens, UniProt P29275); experiment: Activation of human adenosine A2B receptor
T7 sequence (P29275 whole entry): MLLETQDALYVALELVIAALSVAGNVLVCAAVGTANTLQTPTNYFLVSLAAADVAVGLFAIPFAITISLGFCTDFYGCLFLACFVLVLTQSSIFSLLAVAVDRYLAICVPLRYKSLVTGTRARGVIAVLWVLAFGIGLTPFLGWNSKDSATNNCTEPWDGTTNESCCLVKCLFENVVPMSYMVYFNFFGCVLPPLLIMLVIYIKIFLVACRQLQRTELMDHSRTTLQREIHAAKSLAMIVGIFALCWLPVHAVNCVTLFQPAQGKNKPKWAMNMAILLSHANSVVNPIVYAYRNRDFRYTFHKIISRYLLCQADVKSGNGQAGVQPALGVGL

[12] = molecular target: T2, Adenosine receptor A2a; experiment: Displacement of radioligand from human adenosine A2A receptor expressed in HEK293 cells; format: cell-based
[13] = molecular target: Adenosine receptor A2a (Rattus norvegicus, UniProt P30543); experiment: Displacement of radioligand from rat adenosine A2A receptor
Chain of Adenosine receptor A2a (Rattus norvegicus, UniProt P30543) (P30543 whole entry): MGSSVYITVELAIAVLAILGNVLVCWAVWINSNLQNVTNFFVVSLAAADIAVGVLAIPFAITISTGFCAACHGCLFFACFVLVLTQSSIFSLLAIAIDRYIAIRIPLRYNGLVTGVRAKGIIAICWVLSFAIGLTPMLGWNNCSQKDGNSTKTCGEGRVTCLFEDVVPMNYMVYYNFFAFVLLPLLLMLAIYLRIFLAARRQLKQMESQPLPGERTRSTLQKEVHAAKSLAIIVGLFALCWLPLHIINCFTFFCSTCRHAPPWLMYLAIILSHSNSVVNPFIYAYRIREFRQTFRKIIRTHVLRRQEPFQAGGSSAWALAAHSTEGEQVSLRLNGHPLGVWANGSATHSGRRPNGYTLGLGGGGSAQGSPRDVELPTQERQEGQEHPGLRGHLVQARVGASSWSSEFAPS

| SMILES | inhibition [2] [%] | inhibition [3] [%] | Ki [6] [nM] | Ki [7] [nM] | Ki [10] [nM] | Ratio Ki [4] | Ratio Ki [5] | also measured |
| --- | --- | --- | --- | --- | --- | --- | --- | --- |
| CNC(=O)[C@@]12C[C@@H]1[C@@H](n1cnc3c(NCc4cc(OC)ccc4OC)nc(I)nc31)[C@H](O)[C@@H]2O | 35 | 14 | – | – | – | – | – | – |
| CNC(=O)C12C[C@@H]1[C@@H](n1cnc3c(NCc4cccc(C#CCO)c4)nc(Cl)nc31)[C@H](O)[C@@H]2O (single isomer, unassigned) | 56 | 11 | – | – | – | – | – | – |
| CNC(=O)[C@@]12C[C@@H]1[C@@H](n1cnc3c(NCc4cccc(Cl)c4)nc(C#C[Si](C)(C)C)nc31)[C@H](O)[C@@H]2O | 52 | 20 | 159 | 4.46 | – | 35.6 | 160 | Ki [1]: 0.98 nM; Ki [8]: 160 nM |
| CNC(=O)[C@@]12C[C@@H]1[C@@H](n1cnc3c(NCc4cccc(Cl)c4)nc(C#CCCCC(=O)NCCN)nc31)[C@H](O)[C@@H]2O | 81 | 31 | 546 | 8.6 | – | 64 | 209 | Ki [1]: 2.17 nM; Ki [8]: 454 nM |
| CNC(=O)C12C[C@@H]1[C@@H](n1cnc3c(NC4CC4c4ccccc4)nc(Cl)nc31)[C@H](O)[C@@H]2O (single isomer, unassigned) | – | – | – | – | 38200 | – | – | EC50 [11]: ≥ 10000 nM |
| CNC(=O)[C@@]12C[C@@H]1[C@@H](n1cnc3c(NOC)nc(Cl)nc31)[C@H](O)[C@@H]2O | 2 | 2 | 1160 | 877 | – | 1.3 | 1.8 | Ki [1]: 149 nM; Ki [8]: 265 nM |
| CNC(=O)[C@@]12C[C@@H]1[C@@H](n1cnc3c(NCc4cccc(C#CCCCC(=O)NCCNC(C)=O)c4)nc(Cl)nc31)[C@H](O)[C@@H]2O | 80 | 68 | – | – | – | – | – | – |
| CNC(=O)[C@@]12C[C@@H]1[C@@H](n1cnc3c(NC)nc(Cl)nc31)[C@H](O)[C@@H]2O | 6 | – | 55.3 | 49 | – | – | – | Ki [13]: > 10000 nM |
| CNC(=O)C12C[C@@H]1[C@@H](n1cnc3c(NCc4cccc(Cl)c4)nc(SC)nc31)[C@H](O)[C@@H]2O (single isomer, unassigned) | – | 32 | 98.9 | 1.19 | – | 83 | 410 | Ki [12]: 10000 nM |
| CNC(=O)C12C[C@@H]1[C@@H](n1cnc3c(NCC(c4ccccc4)c4ccccc4)nc(Cl)nc31)[C@H](O)[C@@H]2O (single isomer, unassigned) | – | – | 6.83 | 1.67 | 1810 | 4.1 | 1900 | EC50 [11]: ≥ 10000 nM |
| CNC(=O)[C@@]12C[C@@H]1[C@@H](n1cnc3c(NCc4cccc(Cl)c4)nc(C#CCCCC(=O)OC)nc31)[C@H](O)[C@@H]2O | 49 | 50 | 1340 | 4.65 | – | – | – | Ki [8]: 482 nM |

Further lines, with some results ahead:

| inhibition [2] [%] | inhibition [3] [%] | Ki [6] [nM] | Ki [7] [nM] | Ki [10] [nM] | SMILES | Ratio Ki [4] | Ratio Ki [5] | also measured |
| --- | --- | --- | --- | --- | --- | --- | --- | --- |
| 58 | 39 | 151 | 11.9 | – | CNC(=O)[C@@]12C[C@@H]1[C@@H](n1cnc3c(NCc4cccc(C#CCCCC(=O)NCCN)c4)nc(Cl)nc31)[C@H](O)[C@@H]2O | 13 | 52 | Ki [1]: 5.21 nM; Ki [8]: 271 nM |
| – | – | 5.9 | 0.087 | 1000 | CNC(=O)[C@H]1O[C@@H](n2cnc3c(NCc4cccc(I)c4)ncnc32)[C@H](O)[C@@H]1O [IB-MECA] | – | – | EC50 [9]: ≥ 10000 nM |
| – | – | 29 | 1.72 | 44700 | CNC(=O)C12C[C@@H]1[C@@H](n1cnc3c(NCc4cc(OC)ccc4OC)nc(Cl)nc31)[C@H](O)[C@@H]2O (single isomer, unassigned) | 17 | 1100 | EC50 [11]: ≥ 10000 nM; Ki [12]: 10000 nM |
| – | – | 7.32 | 0.8 | 5350 | CNC(=O)[C@@]12C[C@@H]1[C@@H](n1cnc3c(NCc4cccc(I)c4)nc(Cl)nc31)[C@H](O)[C@@H]2O | – | – | EC50 [11]: ≥ 10000 nM |
| – | – | 15.3 | 1.49 | 10400 | CNC(=O)[C@@]12C[C@@H]1[C@@H](n1cnc3c(NCc4cccc(Cl)c4)nc(Cl)nc31)[C@H](O)[C@@H]2O | – | – | EC50 [11]: ≥ 10000 nM |
| 80 | 42 | – | – | – | CCCC#Cc1nc(NCc2cccc(Cl)c2)c2ncn([C@H]3[C@H](O)[C@H](O)[C@]4(C(=O)NC)C[C@H]34)c2n1 | – | – | – |
| 48 | 41 | – | – | – | C#Cc1nc(NCc2cccc(Cl)c2)c2ncn([C@H]3[C@H](O)[C@H](O)[C@]4(C(=O)NC)C[C@H]34)c2n1 | – | – | – |
| 43 | 8 | – | – | – | CNC(=O)[C@@]12C[C@@H]1[C@@H](n1cnc3c(NCc4cccc(Cl)c4)nc(C#CCCCC(=O)O)nc31)[C@H](O)[C@@H]2O | – | – | – |
| 14 | 5 | – | – | – | CNC(=O)[C@@]12C[C@@H]1[C@@H](n1cnc3c(NCc4cccc(C#CCCCC(=O)O)c4)nc(Cl)nc31)[C@H](O)[C@@H]2O | – | – | – |
| – | 40 | – | – | – | CNC(=O)C12C[C@@H]1[C@@H](n1cnc3c(NCc4cccc(Cl)c4)nc(I)nc31)[C@H](O)[C@@H]2O (single isomer, unassigned) | – | – | Ki [12]: > 10000 nM |
| – | – | 8.79 | 0.9 | 6390 | CNC(=O)C12C[C@@H]1[C@@H](n1cnc3c(NCc4cccc(Br)c4)nc(Cl)nc31)[C@H](O)[C@@H]2O (single isomer, unassigned) | 9.8 | 710 | EC50 [11]: ≥ 10000 nM |
| – | – | 35 | – | 10000 | CNC(=O)[C@H]1O[C@@H](n2cnc3c(NCc4cccc(I)c4)nc(Cl)nc32)[C@H](O)[C@@H]1O [NAMODENOSON] | – | – | EC50 [9]: ≥ 10000 nM |
